pKi: −log10 of the molar value.
Target: GST-Bc1-2 (Homo sapiens, UniProt P10415)
Test: Time Resolved-Fluorescence Resonance Energy Transfer (TR-FRET) Bcl-2 binding assay with F-Bak peptide probe
Conditions: GST-Bcl-2 1 nM, F-Bak probe 100 nM, Tb-anti-GST 1 nM; '<' = below limit of detection; read-out: TR-FRET Bcl-2 Binding Ki

Chain of GST-Bc1-2 (P10415 whole entry): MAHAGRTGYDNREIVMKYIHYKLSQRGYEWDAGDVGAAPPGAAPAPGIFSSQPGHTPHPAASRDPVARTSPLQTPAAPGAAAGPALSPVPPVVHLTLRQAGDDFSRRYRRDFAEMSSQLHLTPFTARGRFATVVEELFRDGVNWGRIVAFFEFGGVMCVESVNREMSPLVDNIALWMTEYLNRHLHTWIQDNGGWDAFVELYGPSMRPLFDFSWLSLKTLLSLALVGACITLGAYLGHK

SMILES | pKi
CC1(C)CCC(CN2CCN(c3ccc(C(=O)NS(=O)(=O)c4ccc(N[C@H]5CCCNC5=O)c([N+](=O)[O-])c4)c(Oc4cnc5[nH]ccc5c4)c3)CC2)=C(c2ccc(Cl)cc2)C1 [Example 160, 4-(4-{[2-(4-chlorophenyl)-4,4-dimethylcyclohex-1-en-1-yl]methyl}piperazin-1-yl)-N-[(3-nitro-4-{[(3S)-2-oxopiperidin-3-yl]amino}phenyl)sulfonyl]-2-(1H-pyrrolo[2,3-b]pyridin-5-yloxy)benzamide] | > 11.00
CC1(C)CCC(CN2CCN(c3ccc(C(=O)NS(=O)(=O)c4ccc(NCC5CN(C(CF)CF)C5)c([N+](=O)[O-])c4)c(Oc4cnc5[nH]ccc5c4)c3)CC2)=C(c2ccc(Cl)cc2)C1 [Example 161, 4-(4-{[2-(4-chlorophenyl)-4,4-dimethylcyclohex-1-en-1-yl]methyl}piperazin-1-yl)-N-({4-[({1-[2-fluoro-1-(fluoromethyl)ethyl]azetidin-3-yl}methyl)amino]-3-nitrophenyl}sulfonyl)-2-(1H-pyrrolo[2,3-b]pyridin-5-yloxy)benzamide] | > 11.00
CC1(C)CCC(CN2CCN(c3ccc(C(=O)NS(=O)(=O)c4ccc(NCC5CN(C6COC6)C5)c([N+](=O)[O-])c4)c(Oc4cnc5[nH]ccc5c4)c3)CC2)=C(c2ccc(Cl)cc2)C1 [Example 162, 4-(4-{[2-(4-chlorophenyl)-4,4-dimethylcyclohex-1-en-1-yl]methyl}piperazin-1-yl)-N-[(3-nitro-4-{[(1-oxetan-3-ylazetidin-3-yl)methyl]amino}phenyl)sulfonyl]-2-(1H-pyrrolo[2,3-b]pyridin-5-yloxy)benzamide] | > 11.00
CC1(C)CCC(CN2CCN(c3ccc(C(=O)NS(=O)(=O)c4ccc(NCC5CCN(C6COC6)CC5)c([N+](=O)[O-])c4)c(Oc4cnc5[nH]ccc5c4)c3)CC2)=C(c2ccc(Cl)cc2)C1 [Example 163, 4-(4-{[2-(4-chlorophenyl)-4,4-dimethylcyclohex-1-en-1-yl]methyl}piperazin-1-yl)-N-[(3-nitro-4-{[(1-oxetan-3-ylpiperidin-4-yl)methyl]amino}phenyl)sulfonyl]-2-(1H-pyrrolo[2,3-b]pyridin-5-yloxy)benzamide] | > 11.00
CC1(C)CCC(CN2CCN(c3ccc(C(=O)NS(=O)(=O)c4ccc(NCC5CCN(C6CC6)CC5)c([N+](=O)[O-])c4)c(Oc4cnc5[nH]ccc5c4)c3)CC2)=C(c2ccc(Cl)cc2)C1 [Example 164, 4-(4-{[2-(4-chlorophenyl)-4,4-dimethylcyclohex-1-en-1-yl]methyl}piperazin-1-yl)-N-[(4-{[(1-cyclopropylpiperidin-4-yl)methyl]amino}-3-nitrophenyl)sulfonyl]-2-(1H-pyrrolo[2,3-b]pyridin-5-yloxy)benzamide] | > 11.00
CC1(C)CCC(CN2CCN(c3ccc(C(=O)NS(=O)(=O)c4ccc(NCC5CN(CCF)CCO5)c([N+](=O)[O-])c4)c(Oc4cnc5[nH]ccc5c4)c3)CC2)=C(c2ccc(Cl)cc2)C1 (stereo not shown) [Example 165, 4-(4-{[2-(4-chlorophenyl)-4,4-dimethylcyclohex-1-en-1-yl]methyl}piperazin-1-yl)-N-{[4-({[4-(2-fluoroethyl)morpholin-2-yl]methyl}amino)-3-nitrophenyl]sulfonyl}-2-(1H-pyrrolo[2,3-b]pyridin-5-yloxy)benzamide] | > 11.00
CC1(C)CCC(CN2CCN(c3ccc(C(=O)NS(=O)(=O)c4ccc(NCC5CN(CC(F)F)CCO5)c([N+](=O)[O-])c4)c(Oc4cnc5[nH]ccc5c4)c3)CC2)=C(c2ccc(Cl)cc2)C1 (stereo not shown) [Example 166, 4-(4-{[2-(4-chlorophenyl)-4,4-dimethylcyclohex-1-en-1-yl]methyl}piperazin-1-yl)-N-{[4-({[4-(2,2-difluoroethyl)morpholin-2-yl]methyl}amino)-3-nitrophenyl]sulfonyl}-2-(1H-pyrrolo[2,3-b]pyridin-5-yloxy)benzamide] | > 11.00
CC1(C)CCC(CN2CCN(c3ccc(C(=O)NS(=O)(=O)c4ccc(OCC5(F)CCN(C6COC6)CC5)c([N+](=O)[O-])c4)c(Oc4cnc5[nH]ccc5c4)c3)CC2)=C(c2ccc(Cl)cc2)C1 [Example 167, 4-(4-{[2-(4-chlorophenyl)-4,4-dimethylcyclohex-1-en-1-yl]methyl}piperazin-1-yl)-N-({4-[(4-fluoro-1-oxetan-3-ylpiperidin-4-yl)methoxy]-3-nitrophenyl}sulfonyl)-2-(1H-pyrrolo[2,3-b]pyridin-5-yloxy)benzamide] | > 11.00
CC1(C)CCC(CN2CCN(c3ccc(C(=O)NS(=O)(=O)c4ccc(OC[C@@H]5CC(F)(F)CN5C5COC5)c([N+](=O)[O-])c4)c(Oc4cnc5[nH]ccc5c4)c3)CC2)=C(c2ccc(Cl)cc2)C1 [Example 168, 4-(4-{[2-(4-chlorophenyl)-4,4-dimethylcyclohex-1-en-1-yl]methyl}piperazin-1-yl)-N-[(4-{[(2S)-4,4-difluoro-1-oxetan-3-ylpyrrolidin-2-yl]methoxy}-3-nitrophenyl)sulfonyl]-2-(1H-pyrrolo[2,3-b]pyridin-5-yloxy)benzamide] | > 11.00
CC1(C)CCC(CN2CCN(c3ccc(C(=O)NS(=O)(=O)c4ccc(NCC5COCCN5C5CCOCC5)c([N+](=O)[O-])c4)c(Oc4cnc5[nH]ccc5c4)c3)CC2)=C(c2ccc(Cl)cc2)C1 (stereo not shown) [Example 169, 4-(4-{[2-(4-chlorophenyl)-4,4-dimethylcyclohex-1-en-1-yl]methyl}piperazin-1-yl)-N-[(3-nitro-4-{[(4-tetrahydro-2H-pyran-4-ylmorpholin-3-yl)methyl]amino}phenyl)sulfonyl]-2-(1H-pyrrolo[2,3-b]pyridin-5-yloxy)benzamide] | 10.68
CC1(C)CCC(CN2CCN(c3ccc(C(=O)NS(=O)(=O)c4ccc(NCC5COCCN5C5CCC5)c([N+](=O)[O-])c4)c(Oc4cnc5[nH]ccc5c4)c3)CC2)=C(c2ccc(Cl)cc2)C1 (stereo not shown) [Example 170, 4-(4-{[2-(4-chlorophenyl)-4,4-dimethylcyclohex-1-en-1-yl]methyl}piperazin-1-yl)-N-[(4-{[(4-cyclobutylmorpholin-3-yl)methyl]amino}-3-nitrophenyl)sulfonyl]-2-(1H-pyrrolo[2,3-b]pyridin-5-yloxy)benzamide] | 10.66
CC1(C)CCC(CN2CCN(c3ccc(C(=O)NS(=O)(=O)c4ccc(NCC5COCCN5C5CCOC5)c([N+](=O)[O-])c4)c(Oc4cnc5[nH]ccc5c4)c3)CC2)=C(c2ccc(Cl)cc2)C1 (stereo not shown) [Example 171, 4-(4-{[2-(4-chlorophenyl)-4,4-dimethylcyclohex-1-en-1-yl]methyl}piperazin-1-yl)-N-[(3-nitro-4-{[(4-tetrahydrofuran-3-ylmorpholin-3-yl)methyl]amino}phenyl)sulfonyl]-2-(1H-pyrrolo[2,3-b]pyridin-5-yloxy)benzamide] | > 11.00
CC1(C)CCC(CN2CCN(c3ccc(C(=O)NS(=O)(=O)c4ccc(NCC5CCN(C(CF)CF)CC5)c([N+](=O)[O-])c4)c(Oc4cnc5[nH]ccc5c4)c3)CC2)=C(c2ccc(Cl)cc2)C1 [Example 172, 4-(4-{[2-(4-chlorophenyl)-4,4-dimethylcyclohex-1-en-1-yl]methyl}piperazin-1-yl)-N-({4-[({1-[2-fluoro-1-(fluoromethyl)ethyl]piperidin-4-yl}methyl)amino]-3-nitrophenyl}sulfonyl)-2-(1H-pyrrolo[2,3-b]pyridin-5-yloxy)benzamide] | > 11.00

Reference: US8580794B2 (AbbVie Inc., priority 2009, dated 2013)
